Laboratory results reported in patent US8431704B2, “Quinoline or isoquinoline substituted P2X7 antagonists” (Janssen Pharmaceutica NV, priority 2008, dated 2013).

Legend:
hP2X7 = target: T1, hP2X7 (Homo sapiens, UniProt Q99572); assay: P2X7 antagonism: ligand-induced Ca2+ flux in 1321N1 astrocytoma cells overexpressing hP2X7; type: cell-based; conditions: pIC50 = -log(IC50), read-out: hP2RX7pIC50 (mean pIC50 values) (converted)
T1 construct: expressed in transfected cells; host or cells: 1321N1 astrocytoma cells
T1 sequence (Q99572 1-595): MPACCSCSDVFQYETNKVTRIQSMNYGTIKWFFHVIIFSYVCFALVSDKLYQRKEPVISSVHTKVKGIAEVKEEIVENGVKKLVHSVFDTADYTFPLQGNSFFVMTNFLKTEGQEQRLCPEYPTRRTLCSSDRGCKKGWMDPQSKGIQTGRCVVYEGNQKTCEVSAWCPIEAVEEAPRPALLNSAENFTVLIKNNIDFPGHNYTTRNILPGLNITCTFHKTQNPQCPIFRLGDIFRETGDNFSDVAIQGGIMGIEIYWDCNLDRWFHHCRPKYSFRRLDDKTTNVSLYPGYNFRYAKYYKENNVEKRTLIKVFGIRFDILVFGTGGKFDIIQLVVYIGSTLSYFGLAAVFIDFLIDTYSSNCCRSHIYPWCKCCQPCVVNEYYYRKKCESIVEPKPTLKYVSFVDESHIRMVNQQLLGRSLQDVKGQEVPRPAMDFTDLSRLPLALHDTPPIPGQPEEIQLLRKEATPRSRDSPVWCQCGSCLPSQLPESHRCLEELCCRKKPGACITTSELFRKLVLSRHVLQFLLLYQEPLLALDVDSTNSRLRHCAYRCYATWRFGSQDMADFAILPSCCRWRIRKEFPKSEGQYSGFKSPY
Procedure, shortened: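 Intracellular Ca2+ tracked with a quenched Ca2+-sensitive fluorescent dye kit (excitation 488 nm, emission 510-560 nm) in 1321N1 cells, before and after agonist addition in presence of antagonist. Effects expressed as % control and IC50.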

P2X7 = target: T2, P2X7 (Homo sapiens, UniProt Q99572); assay: THP-1 YoPro uptake assay (BzATP-stimulated Yo-Pro-1 uptake); type: cell-based; conditions: Table F-10, THP-1 cells, read-out: mean pIC50 values for P2X7 antagonism (converted)
T2 construct: endogenous in cells; host or cells: THP-1 human monocytic cell line
T2 sequence (Q99572 1-595): T1 sequence (Q99572 1-595)

Row | IC50 (hP2X7) [nM] | melting point [°C] | IC50 (P2X7) [nM] | Structure (SMILES)
1 | 27.5 | 217.7 | – | O=C(NCC(c1cnc(C(F)(F)F)nc1)N1CCC(F)(F)CC1)c1cccc2ncccc12 (single isomer, unassigned) [Compound 46]
2 | 33.9 | 125.3 | – | O=C(NCC(c1cnc(C(F)(F)F)nc1)N1CCC(F)(F)CC1)c1cccc2nc(NCCO)ccc12 (stereo not shown) [Compound 39]
3 | 224 | 206.9 | – | O=C(NCC(c1cnc(C(F)(F)F)nc1)N1CCC(F)(F)CC1)c1cccc2nc(O)ccc12 (stereo not shown) [Compound 77]
4 | 25.7 | 202.9 | – | O=C(NCC(c1cnc(C(F)(F)F)nc1)N1CCC(F)(F)CC1)c1cccc2nc(N3CCNCC3)ccc12 (stereo not shown) [Compound 78]
5 | – | 236.3 | – | CC(C)N1CCN(c2ccc3c(C(=O)NCC(c4cnc(C(F)(F)F)nc4)N4CCC(F)(F)CC4)cccc3n2)CC1 (stereo not shown) [Compound 134]
6 | 91.2 | 191.5 | – | CC1CN(c2ccc3c(C(=O)NCC(c4cnc(C(F)(F)F)nc4)N4CCC(F)(F)CC4)cccc3n2)CC(C)O1 (stereo not shown) [Compound 140]

The remaining lines, values behind:

Row | Structure (SMILES) | IC50 (hP2X7) [nM] | melting point [°C] | IC50 (P2X7) [nM]
7 | O=C(NCC(c1ccc(Cl)nc1)N1CCC(F)(F)CC1)c1cccc2ncccc12 (stereo not shown) [Compound 7] | 25.1 | 187.3 | –
8 | O=C(NCC(c1ccc(C(F)(F)F)nc1)N1CCNCC1)c1cccc2ncccc12 (stereo not shown) [Compound 8] | > 10000 | 198 | –
9 | O=C(NCC(c1ccc(C(F)(F)F)nc1)N1CCC(O)(c2ccc(Cl)cc2)CC1)c1cccc2ncccc12 (stereo not shown) [Compound 29] | > 10000 | 155 to 162.2 | –
10 | NC(=O)C1CCN(C(CNC(=O)c2cccc3ncccc23)c2ccc(C(F)(F)F)nc2)CC1 (stereo not shown) [Compound 34] | > 10000 | 253.7 to 254.3 | –
11 | O=C(NCC(c1cnc(C(F)(F)F)nc1)N1CCCCC1)c1cccc2ncccc12 (stereo not shown) [Compound 35] | 21.4 | 183.6 | –
12 | Cc1ncc(C(CNC(=O)c2cccc3nc(N4CCOCC4)ccc23)N2CCC(F)(F)CC2)cn1 (stereo not shown) [Compound 96] | 47.9 | 160 | –
13 | O=C(NCC(c1cnc(C(F)(F)F)nc1)N1CCOCC1)c1cccc2nc(N3CCNCC3)ccc12 (stereo not shown) [Compound 102] | 72.4 | 234.3 | –
14 | CC(C)(C)OC(=O)N1CCN(c2ccc3c(C(=O)NCC(c4cnc(C(F)(F)F)nc4)N4CCCC(F)(F)C4)cccc3n2)CC1 (stereo not shown) [Compound 106] | 138 | 159.7 | –
15 | O=C(NCC(c1cnc(C(F)(F)F)nc1)N1CCOCC1)c1c(F)ccc2ncccc12 (stereo not shown) [Compound 609] | – | – | 33.1
